The source of these data is PMC11184611, “Development of Nontoxic Peptides for Lipopolysaccharide Neutralization and Sepsis Treatment” (ACS Pharmacology & Translational Science, 2024).

One series concerns S. aureus (ATCC 6538P). Format: cell-based, Staphylococcus aureus. The protocol:
(§1) The antibacterial activity of the peptides was examined in sterile 96-well plates (Nunc 96-well microtiter plates) in a final volume of 100 μL, as follows. Aliquots (50 μL) of a suspension containing bacteria at a concentration of 10^6 colony-forming units/mL in culture medium (LB medium) were added to 50 μL of peptide serially diluted in culture medium (100–0.78 μM). Inhibition of growth was determined by the eye after an incubation of 18–20 h at 37 °C. Antibacterial activities were expressed as the minimal inhibitory concentration (MIC), the concentration at which 100% inhibition of growth was observed after 18–20 h of incubation. In these experiments, we have tested the effect of the peptides on E. coli (ATCC 25922) and Staphylococcus aureus (ATCC 6538P) as representatives of both Gram-negative and Gram-positive bacteria, respectively.

The test system of series [1] is RAW264.7 murine macrophages. Format: cell-based. The method, then: All in vitro assays were performed on RAW264.7 murine macrophages (ATCC TIB-71). Cells were grown in Dulbecco’s modified eagle medium (DMEM) supplemented with 10% fetal bovine serum (FBS), L-glutamine, sodium pyruvate, nonessential amino acids, and antibiotics (Biological Industries, Beit Haemek, Israel). The incubator was set on 37 °C with a humidified atmosphere containing 5% CO2.
One ×10^4 cells per well were grown overnight on a 96-well plate at 37 °C with a humidified atmosphere containing 5% CO2. The following day, the media were replaced with 90 μL fresh culture medium and 10 μL solution buffer containing different concentrations of the different peptides. Peptides were serially diluted in culture medium to concentration ranging from 100 to 0.78 μM. The cells were then incubated for 2 h before adding to each well 50 μL of […] (XTT) reaction solution (Biological Industries). Cell viability was determined as described previously.[52],[54] The LC50 (the concentration at which 50% of the cells die) for each peptide was obtained from the dose-dependent cell viability curves.

For a further series, the system named is E. coli (ATCC 25922). Format: cell-based. The method, then:
as §1

A further series relates to C57BL/6 mice. Put plainly: In vivo toxicity, i.p. injection. The note with it: 100 mg/kg i.p. in 400 μL saline, highest dose tested, female C57BL/6 mice, n = 2, observed 7 days. The protocol:
Toxicity was tested by i.p. injection of K2(AL)8K2 (100 mg/kg in 400 μL saline) in female C57BL/6 mice (n = 2). Mice were continuously observed for 1 h immediately following injection and once per day for 7 days. To examine the effect of our peptide on acute septic shock driven by LPS hyper-activation of TLR4, we have used murine models as described before.[55],[56] Briefly, 12 weeks old C57BL/6 female mice were treated with 100 ng of LPS injected i.p. in a saline solution (200 μL, pH 6.5) containing 200 mg/mL of D-galactosamine (Calbiochem). Treated mice received one i.p. injection of 10 mg/kg peptide dissolved in saline (200 μL) followed by an injection of LPS. In the second model, heat-killed bacteria were used to induce a lethal septic shock. E. coli cells were grown to a mid-log phase (optical density = 0.5) at 37 °C, cooled on ice, and centrifuged at 1200g for 10 min at 4 °C. The cells were resuspended in saline for a concentration of 2 × 10^9 cells in 200 μL and heated at 95 °C for 30 min. Each animal received an i.p. injection of 2 × 10^9 cells in 200 μL saline followed by an injection of 10 mg/kg peptide dissolved in saline (200 μL). Animals were monitored for survival and signs of sepsis for the next 14 days after LPS injection. For LPS-driven septic shock, n = 8. For heat-killed bacteria, n = 11. […]

Setting [2] is: XTT, cells incubated 2 h with peptide, 100 to 0.78 μM.
[3] abbreviates: 100% inhibition of growth, by eye, after 18–20 h at 37 °C, LB medium, peptide 100–0.78 μM.

Like-named read-outs stand apart in the source and are kept apart here. No end group written: not given here.

KKAVAVAVAVAVAVAVAVKK-NH2 [K2(AV)8K2]: in the series with S. aureus (ATCC 6538P), the “MIC S. aureus (ATCC 6538P)” value was more than 100 µM. Further, the “LC50 macrophages RAW 264.7” value in series [1] (2 h) is 90 µM. In the series with E. coli (ATCC 25922) (ATCC 25922), the “MIC E. coli (ATCC 25922)” value was more than 100 µM.
Regarding KALALALALALALALALALK-NH2 [K(AL)9K], the “MIC S. aureus (ATCC 6538P)” value in the series on S. aureus (ATCC 6538P) was more than 100 µM. Moreover, the toxicity to macrophages result in series [1] is recorded as “no”. In addition, the “LC50 macrophages RAW 264.7” value in series [1] (2 h) is more than 100 µM. For the same substance, in the series with E. coli (ATCC 25922) (ATCC 25922), the “MIC E. coli (ATCC 25922)” value is more than 100 µM.
For KKALALALKK-NH2 [K2(AL)3K2], the “MIC S. aureus (ATCC 6538P)” value against S. aureus (ATCC 6538P) was more than 100 µM. In addition, the toxicity to macrophages entry in series [1] is recorded as “no”. In addition, the “LC50 macrophages RAW 264.7” value in series [1] (2 h) is more than 100 µM. Further, in the series with E. coli (ATCC 25922) (ATCC 25922), the “MIC E. coli (ATCC 25922)” value was more than 100 µM.
With ALALALALALALALALALKK-NH2 [(AL)9K2], the “MIC S. aureus (ATCC 6538P)” value with S. aureus (ATCC 6538P) is more than 100 µM. The toxicity to macrophages result in series [1] is given as “no”. Moreover, in series [1] (2 h), the “LC50 macrophages RAW 264.7” value was more than 100 µM. Also, in the series with E. coli (ATCC 25922) (ATCC 25922), the “MIC E. coli (ATCC 25922)” value was more than 100 µM.
For the substance KKALALALALALAKK-NH2 [K2(AL)5AK2], in the series on S. aureus (ATCC 6538P), the “MIC S. aureus (ATCC 6538P)” value is more than 100 µM. Moreover, the toxicity to macrophages result in series [1] is reported as “no”. The “LC50 macrophages RAW 264.7” value in series [1] (2 h) is more than 100 µM. Moreover, the “MIC E. coli (ATCC 25922)” value with E. coli (ATCC 25922) (ATCC 25922) is more than 100 µM.
For KKALALALALALALALALKK-NH2 [K2(AL)8K2], in the series with C57BL/6 mice, the “toxicity in vivo” value is “no lasting adverse effects were observed”. Moreover, the “MIC S. aureus (ATCC 6538P)” value in the series on S. aureus (ATCC 6538P) is more than 100 µM. Moreover, the toxicity to macrophages result in series [1] is reported as “no”. Also, in series [1] (2 h), the “LC50 macrophages RAW 264.7” value was more than 100 µM. In addition, in the series with E. coli (ATCC 25922) (ATCC 25922), the “MIC E. coli (ATCC 25922)” value was more than 100 µM.
In the case of “KALALALKALALKALALALK-NH2 [K(AL)3K(AL)2K(AL)3K]”, the “MIC S. aureus (ATCC 6538P)” value in the series with S. aureus (ATCC 6538P) came out at 12.5 µM. Moreover, the “cytotoxicity” value in series [1] (RAW264.7) was “moderate toxicity”. Besides, in series [1] (setting [2]), the “LC50 macrophages RAW 264.7” value was found to be 25 µM. For the same substance, the toxicity to macrophages result in series [1] (summary table, yes/no) is “yes”. For the same substance, the “MIC E. coli (ATCC 25922)” value with E. coli (ATCC 25922) (ATCC 25922) came to 25 µM.
LALALALALALALALALALK-NH2 [L(AL)9K]: in the series with S. aureus (ATCC 6538P) (setting [3]), the “MIC S. aureus (ATCC 6538P)” value is more than 100 µM. Further, the “LC50 macrophages RAW 264.7” value in series [1] (setting [2]) was more than 100 µM. For the same substance, the toxicity to macrophages entry in series [1] (summary table, yes/no) is “no”. Also, the “MIC E. coli (ATCC 25922)” value with E. coli (ATCC 25922) (setting [3]) is more than 100 µM.
